Results reported in article PMC11744973, “Optimized extraction and kinetic study of cholesterol oxidase from a newly isolated Escherichia fergusonii strain from local whey samples: insights through a combined experimental study and artificial neural network modeling” (BMC Microbiology, 2025).

Tested on: T1, cholesterol oxidase (ChoX, ChOx)
T1 construct: native extracellular enzyme purified from culture supernatant (ammonium sulfate, Q-Sepharose)
Assay: HRP-coupled 4-aminoantipyrine/phenol quinoneimine assay at […] nm, Lineweaver-Burk
Type: biochemical, Escherichia fergusonii
Details: optimum conditions (30 °C, pH 7.5, in the presence of MgSO4 per abstract); KPB; cholesterol 0.1-3.0 mM in Triton X-100; O2 co-substrate

CC(C)CCC[C@@H](C)[C@H]1CC[C@H]2[C@@H]3CC=C4C[C@@H](O)CC[C@]4(C)[C@H]3CC[C@]12C [cholesterol]
Km: 710 µM
